Results taken from patent US20230192705A1, “SHP2 INHIBITORS, COMPOSITIONS AND USES THEREOF” (Betta Pharmaceuticals Co., Ltd, priority 2020, published 2023).

What was measured:
[1] = In vitro metabolic stability in human liver microsome; assay type: in vitro ADME; details: human liver microsomes
Experimental: (§1) 1900 mg MgCl2 was dissolved into a final volume of 400 mL ultra-pure water.
(§2) 17.42 g K2HPO4 and 13.65 g KH2PO4 were dissolved into a final volume of 1000 mL ultra-pure water, respectively. K2HPO4 and KH2PO4 were mixed to prepare 100 mM potassium phosphate (PBS) buffer. The pH value of the final solution was adjusted to pH 7.30±0.10.
(§3) Cold ACN (including 10 ng/mL Labetalol and 10 ng/mL Glibenclamid) was stored at 4° C.
(§4) Working Solution Preparation:
(§5) Verapamil (positive control) and test compound stock solution were diluted into a concentration of 50 μM and 200 μM respectively, using MeOH/ACN/H2O solution (1:1:2, v/v/v).
(§6) 1) 40 μL MgCl2 and 306 μL PBS were added to 96 plate wells (blank, compound wells, compounds without NADPH wells)
(§7) 2) 4 μL compound working solution was added to above wells (blank: 4 μL PBS buffer) (Note: the volume of DMSO in final incubation system ≤0.5%)
(§8) 3) 10 μL microsomes (20 mg/mL) was added in each well. The mixture was warmed up for 10 minutes at 37.0° C.
(§9) 4) 40 μL 10 mM NADPH working solution was added to start reaction. The total volume was 400 μL.
(§10) 5) Aliquots of 50 μL samples were taken from the reaction solution at 0, 5, 15, 45 min. The reaction solutions were stopped by the addition of 400 μL stop solution.
(§11) 6) The sampling plates were shaked for approx. 5 min.
(§12) 7) Samples were centrifuged at 3200 rcf for 10 min. then transferred 50 μL to a new plate dilute with 200 μL H2O for LC/MS/MS analysis.
(§13) Use equation of first order kinetics to calculate t1/2 and CL: […]
(§14) Where k represents elimination constant, which is calculated from a log linear plot of % Remaining versus time. t1/2 represents the half-life. Cprotein is the concentration of liver microsomes.

hERG channel = target: T1, hERG channel (Homo sapiens, UniProt Q12809); assay: Patch clamp assay to test the effect of compound on hERG channel; assay type: cell-based; details: manual patch clamp, HEK 293 cells expressed with hERG, concentration for half maximum effect
T1 construct: expressed in transfected cells; host or cells: HEK-293
Experimental: 10 mL extracellular solution was used to dilute the stock solution, making the final concentrations of test compound were 0.3 μM, 1 μM, 3 μM, 10 μM and 30 μM.
The solubility of compound was visually observed.
The cell line was derived from HEK-293 cells, and grown in a humidified environment at 37° C. under 5% CO2, using the media formulation below. The cell line should not be allowed to exceed 80% confluence within the culture vessel to prevent contact inhibition causing senescence and should thus be passaged every 3/4 days using a seeding density of 2*10^6 cells per T175 flask. Cell lines were be pre-washed with phosphate buffered saline before harvesting with Trypsin/EDTA and seeded into new flasks.
HEK 293 cells expressed with hERG were plated on cover slips overnight with the cell density less than 50% of confluence. Cells used for electrophysiological study were transferred to a small cell bath (1 mL) mounted on the stage of an inverted microscope (Diaphot, Nikon) and were perfused with external solution containing (in mM) 130 NaCl, 4 KCl, 1.8 CaCl2), 1 MgCl2, 10 glucose and 10 HEPES (pH 7.4 with NaOH), the perfusion rate was 4 mL/min. The internal pipette solution contained (in mM) 130 KCl, 1 MgCl2, 5 ethylene glycol-bis(baminoethyl ether)-N,N,N8,N8-tetraacetic acid, 5 MgATP and 10 HEPES (pH 7.2 with KOH). An HEKA EPC-10 patch-clamp amplifier and PATCHMASTER acquisition program were used to record membrane currents (HEKA Instruments IncD-67466 Lambrecht/Pfalz Germany). All experiments were performed at room temperature (22-23° C.).
The Model P-97 micropipette puller (Sutter Instrument Company, One Digital Drive, Novato, Calif. 94949) was used to pull glass patch pipettes (BF150-86-10) in all experiments.
The experiments were initiated with a 2 min vehicle control period after forming a whole cell configuration with less 5% run-down in 5 min and the tail currents in the report were at least greater than 500 pA. After a 2 min vehicle control period, the perfusion was switched to the reservoir containing the compound at the first concentration. The same procedure was repeated 3-5 times so that each cell was exposed to 4-6 escalating concentrations of compound. The time courses for block and unblock of hERG during compounds exposure and washout were continuously recorded.
The peak tail of hERG was generated by applying 2-sec depolarizing every 12 sec steps from a holding potential of −80 mV, the peak of tail currents were measured at a 5-sec repolarizing pulse at −50 mV.
hERG peak tail currents were directly measured from a 5 sec repolarization pulse at −50 mV. The fraction of control current was plotted as a function of logarithm of compound concentration. To determine the concentration of compound for halfmaximum effect, the concentration-response curve was fitted by Hill equation as shown follow.
where Y is the observed value, Bottom is the lowest observed value (0), Top is the highest observed value (1), and the Hillcoefficient gives the largest absolute value of the slope of the curve.
Data were analyzed by a combination of PATCHMASTER ((HEKA Instruments IncD-67466 Lambrecht/Pfalz Germany) and Origin (OriginLab Corporation, Northampton, Mass.) software programs.
Data were expressed as mean±SEM.

[2] = In vitro metabolic stability in rat liver microsome; assay type: in vitro ADME; details: rat liver microsomes
Experimental: as §1, §2, §3, §4, §5, §6, §7, §8, §9, §10, §11, §12, §13, §14

SHP2 = target: T2, SHP2 (Homo sapiens, UniProt Q06124); assay: SHP2 allosteric inhibitor enzyme activity assay (DiFMUP fluorescence); assay type: biochemical
T2 sequence (Q06124 1-593): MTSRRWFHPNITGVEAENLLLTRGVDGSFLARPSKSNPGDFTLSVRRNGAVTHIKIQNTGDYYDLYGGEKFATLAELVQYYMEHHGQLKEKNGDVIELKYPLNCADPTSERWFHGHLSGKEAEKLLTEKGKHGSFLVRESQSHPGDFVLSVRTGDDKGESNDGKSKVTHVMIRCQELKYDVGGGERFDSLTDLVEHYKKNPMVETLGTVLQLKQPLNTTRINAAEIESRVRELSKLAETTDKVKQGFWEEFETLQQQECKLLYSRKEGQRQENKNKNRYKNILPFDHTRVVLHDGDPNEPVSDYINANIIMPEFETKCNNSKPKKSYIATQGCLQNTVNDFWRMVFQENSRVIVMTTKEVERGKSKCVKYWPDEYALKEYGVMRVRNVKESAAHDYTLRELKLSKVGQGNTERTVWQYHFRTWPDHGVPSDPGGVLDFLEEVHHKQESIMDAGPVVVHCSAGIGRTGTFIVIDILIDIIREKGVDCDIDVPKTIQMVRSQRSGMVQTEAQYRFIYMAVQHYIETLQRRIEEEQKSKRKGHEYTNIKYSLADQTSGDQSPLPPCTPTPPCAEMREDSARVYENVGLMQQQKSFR
In short: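 SHP2 activated by 0.5 μM IRS1_pY1172(dPEG8)pY1222 peptide, 0.2 ng enzyme per well, 1 h at room temperature with compound (1 μM top, 3-fold series), then DiFMUP substrate 1 h. Buffer: 60 mM HEPES, 75 mM NaCl, 75 mM KCl, 0.05% BRIJ-35, 1 mM EDTA, 5 mM DTT. Fluorescence ex 340/em 450 nm; IC50 by variable-slope fit.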

T1 sequence (Q12809 whole entry): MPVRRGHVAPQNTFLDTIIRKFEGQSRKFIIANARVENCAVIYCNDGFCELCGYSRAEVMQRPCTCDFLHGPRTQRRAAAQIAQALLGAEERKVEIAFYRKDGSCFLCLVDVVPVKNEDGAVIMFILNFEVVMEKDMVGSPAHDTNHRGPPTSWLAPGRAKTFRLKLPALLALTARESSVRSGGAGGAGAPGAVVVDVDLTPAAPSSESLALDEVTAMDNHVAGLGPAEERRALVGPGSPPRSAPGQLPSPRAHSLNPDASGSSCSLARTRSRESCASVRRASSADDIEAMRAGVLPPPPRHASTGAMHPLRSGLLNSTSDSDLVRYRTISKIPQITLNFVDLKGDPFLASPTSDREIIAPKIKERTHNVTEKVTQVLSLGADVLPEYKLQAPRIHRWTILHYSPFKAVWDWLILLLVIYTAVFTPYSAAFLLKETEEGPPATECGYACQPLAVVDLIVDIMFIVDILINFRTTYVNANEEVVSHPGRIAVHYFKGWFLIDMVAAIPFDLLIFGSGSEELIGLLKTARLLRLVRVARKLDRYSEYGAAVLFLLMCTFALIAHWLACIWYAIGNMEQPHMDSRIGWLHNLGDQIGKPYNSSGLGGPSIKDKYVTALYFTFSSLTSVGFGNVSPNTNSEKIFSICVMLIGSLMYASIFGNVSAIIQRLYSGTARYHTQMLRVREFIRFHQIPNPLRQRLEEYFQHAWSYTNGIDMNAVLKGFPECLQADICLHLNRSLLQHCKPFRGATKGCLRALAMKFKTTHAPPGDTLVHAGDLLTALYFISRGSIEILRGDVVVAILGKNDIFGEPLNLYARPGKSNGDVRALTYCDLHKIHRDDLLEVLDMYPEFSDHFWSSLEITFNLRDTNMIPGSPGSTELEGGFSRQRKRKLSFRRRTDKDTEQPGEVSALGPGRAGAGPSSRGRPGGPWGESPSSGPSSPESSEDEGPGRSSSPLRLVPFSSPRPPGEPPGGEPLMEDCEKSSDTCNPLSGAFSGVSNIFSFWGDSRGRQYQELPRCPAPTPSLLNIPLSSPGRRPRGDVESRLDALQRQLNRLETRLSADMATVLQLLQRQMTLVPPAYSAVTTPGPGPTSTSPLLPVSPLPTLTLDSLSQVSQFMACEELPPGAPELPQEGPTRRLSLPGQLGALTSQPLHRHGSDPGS

SMILES	CLint Human [1] [μL/min/mg proteins]	IC50 (hERG channel) [nM]	CLint Rat [2] [μL/min/mg proteins]	IC50 (SHP2; numeric values) [nM]	IC50 (SHP2; class symbols) [nM]
Cn1c(N2CCC3(CC2)Cc2ccccc2[C@H]3N)nc2[nH]nc(Sc3cccc(Cl)c3Cl)c2c1=O [Comparative compound 1, reference compound]	171.8	90	89.9	–	–
N[C@@H]1c2ccccc2CC12CCN(c1nc3[nH]nc(C4(Cc5ccccc5)CC4)c3c(=O)[nH]1)CC2 [Example 74]	182.7	1840	102.0	–	–
CC(C)(c1ccccc1)c1n[nH]c2nc(N3CCC4(CC3)Cc3ccccc3[C@H]4N)[nH]c(=O)c12 [Example 216, (S)-6-(1-amino-1,3-dihydrospiro[indene-2,4′-piperidin]-1′-yl)-3-(2-phenylpropan-2-yl)-1,5-dihydro-4H-pyrazolo[3,4-d]pyrimidin-4-one]	50.0	–	32.5	1.1	–
N[C@@H]1c2ccccc2CC12CCN(c1nc3[nH]nc(C4(c5ccc(OC(F)(F)F)cc5)CC4)c3c(=O)[nH]1)CC2 [Example 233, (S)-6-(1-amino-1,3-dihydrospiro[indene-2,4′-piperidin]-1′-yl)-3-(1-(4-(trifluoromethoxy)phenyl)cyclo-propyl)-1,5-dihydro-4H-pyrazolo[3,4-d]pyrimidin-4-one]	0.2	–	3.4	–	≤ 20
